Measured values as given in patent US9340590B2 (priority 2011, dated 2016).
Read-outs that look alike come from different tables or passages of the source. Positions of bridges follow the written chain, without caps; N, C: chain ends. Residues, ends and D or L forms follow the SMILES beside them.

Tests used:
Test in all cases: cell-based
hNav1.3 = hNav1.3 (Homo sapiens, UniProt Q9NY46); details: IonWorks Quattro, read-out: IWQ Use Nav1.3
hNav1.7 = hNav1.7 (Homo sapiens, UniProt Q15858); type: cell-based
hNav1.5 = hNav1.5 (Homo sapiens, UniProt Q14524)
[1] = clamped to −110 mV, depolarized to −10 mV, 5 min after compound, n=2
[2] = IonWorks Quattro, clamped to −110 mV, depolarized to −10 mV, 5 min after compound, n=2, read-out: IWQ Use Nav1.7
[3] = IonWorks Quattro, clamped to −110 mV, depolarized to −10 mV, 5 min after compound, n=2, read-out: IWQ Use Nav1.5

hNav1.5, sequence (Q14524 whole entry, looked up): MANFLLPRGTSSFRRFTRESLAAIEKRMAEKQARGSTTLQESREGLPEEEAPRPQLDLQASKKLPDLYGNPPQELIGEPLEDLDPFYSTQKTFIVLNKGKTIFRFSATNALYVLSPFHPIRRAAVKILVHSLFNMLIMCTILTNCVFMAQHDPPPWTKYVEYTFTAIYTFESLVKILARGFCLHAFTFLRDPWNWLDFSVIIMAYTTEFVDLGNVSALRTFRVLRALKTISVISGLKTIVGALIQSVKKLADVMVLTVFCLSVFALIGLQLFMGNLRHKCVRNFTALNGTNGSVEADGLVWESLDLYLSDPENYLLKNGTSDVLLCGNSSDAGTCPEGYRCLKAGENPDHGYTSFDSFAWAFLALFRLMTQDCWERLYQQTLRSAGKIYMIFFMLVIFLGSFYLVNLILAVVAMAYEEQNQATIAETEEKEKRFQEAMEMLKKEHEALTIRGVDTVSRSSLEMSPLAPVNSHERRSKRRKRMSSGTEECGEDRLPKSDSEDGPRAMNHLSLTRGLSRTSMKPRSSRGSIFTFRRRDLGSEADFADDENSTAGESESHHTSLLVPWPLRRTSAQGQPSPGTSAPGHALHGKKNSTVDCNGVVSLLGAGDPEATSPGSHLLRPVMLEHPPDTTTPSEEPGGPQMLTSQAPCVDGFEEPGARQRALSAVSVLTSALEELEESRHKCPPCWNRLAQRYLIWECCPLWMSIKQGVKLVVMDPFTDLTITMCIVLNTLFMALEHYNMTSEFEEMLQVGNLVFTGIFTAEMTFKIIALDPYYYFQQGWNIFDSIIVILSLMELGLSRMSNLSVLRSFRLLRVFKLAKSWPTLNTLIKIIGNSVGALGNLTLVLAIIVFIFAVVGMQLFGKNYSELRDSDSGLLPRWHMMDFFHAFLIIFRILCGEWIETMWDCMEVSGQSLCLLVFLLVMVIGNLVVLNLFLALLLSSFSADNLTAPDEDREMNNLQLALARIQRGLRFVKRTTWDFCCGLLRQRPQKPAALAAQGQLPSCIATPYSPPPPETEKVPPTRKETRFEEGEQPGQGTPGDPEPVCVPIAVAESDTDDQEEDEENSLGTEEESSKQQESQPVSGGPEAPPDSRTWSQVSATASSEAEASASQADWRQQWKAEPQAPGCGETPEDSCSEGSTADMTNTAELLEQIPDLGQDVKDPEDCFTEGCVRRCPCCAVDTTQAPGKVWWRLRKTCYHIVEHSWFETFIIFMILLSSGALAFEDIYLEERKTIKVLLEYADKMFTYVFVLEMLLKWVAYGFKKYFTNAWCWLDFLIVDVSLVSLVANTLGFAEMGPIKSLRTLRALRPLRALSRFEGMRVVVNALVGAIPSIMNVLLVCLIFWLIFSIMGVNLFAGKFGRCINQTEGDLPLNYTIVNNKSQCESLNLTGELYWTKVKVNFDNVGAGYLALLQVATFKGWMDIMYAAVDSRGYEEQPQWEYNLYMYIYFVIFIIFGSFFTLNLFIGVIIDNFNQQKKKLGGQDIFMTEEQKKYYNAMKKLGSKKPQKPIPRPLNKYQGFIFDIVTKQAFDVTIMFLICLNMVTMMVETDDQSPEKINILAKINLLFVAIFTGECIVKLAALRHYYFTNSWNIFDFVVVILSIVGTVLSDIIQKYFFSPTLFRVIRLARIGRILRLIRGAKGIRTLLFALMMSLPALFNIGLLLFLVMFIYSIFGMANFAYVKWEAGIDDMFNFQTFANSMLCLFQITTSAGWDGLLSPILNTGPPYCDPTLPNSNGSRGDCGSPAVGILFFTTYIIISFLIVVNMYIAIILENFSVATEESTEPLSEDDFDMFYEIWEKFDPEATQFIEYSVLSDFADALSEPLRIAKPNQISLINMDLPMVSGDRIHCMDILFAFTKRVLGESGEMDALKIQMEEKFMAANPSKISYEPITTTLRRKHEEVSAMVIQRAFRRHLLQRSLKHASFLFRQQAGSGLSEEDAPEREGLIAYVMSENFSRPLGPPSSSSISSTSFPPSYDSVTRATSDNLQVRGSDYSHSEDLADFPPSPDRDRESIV
hNav1.3, sequence (Q9NY46 whole entry, looked up): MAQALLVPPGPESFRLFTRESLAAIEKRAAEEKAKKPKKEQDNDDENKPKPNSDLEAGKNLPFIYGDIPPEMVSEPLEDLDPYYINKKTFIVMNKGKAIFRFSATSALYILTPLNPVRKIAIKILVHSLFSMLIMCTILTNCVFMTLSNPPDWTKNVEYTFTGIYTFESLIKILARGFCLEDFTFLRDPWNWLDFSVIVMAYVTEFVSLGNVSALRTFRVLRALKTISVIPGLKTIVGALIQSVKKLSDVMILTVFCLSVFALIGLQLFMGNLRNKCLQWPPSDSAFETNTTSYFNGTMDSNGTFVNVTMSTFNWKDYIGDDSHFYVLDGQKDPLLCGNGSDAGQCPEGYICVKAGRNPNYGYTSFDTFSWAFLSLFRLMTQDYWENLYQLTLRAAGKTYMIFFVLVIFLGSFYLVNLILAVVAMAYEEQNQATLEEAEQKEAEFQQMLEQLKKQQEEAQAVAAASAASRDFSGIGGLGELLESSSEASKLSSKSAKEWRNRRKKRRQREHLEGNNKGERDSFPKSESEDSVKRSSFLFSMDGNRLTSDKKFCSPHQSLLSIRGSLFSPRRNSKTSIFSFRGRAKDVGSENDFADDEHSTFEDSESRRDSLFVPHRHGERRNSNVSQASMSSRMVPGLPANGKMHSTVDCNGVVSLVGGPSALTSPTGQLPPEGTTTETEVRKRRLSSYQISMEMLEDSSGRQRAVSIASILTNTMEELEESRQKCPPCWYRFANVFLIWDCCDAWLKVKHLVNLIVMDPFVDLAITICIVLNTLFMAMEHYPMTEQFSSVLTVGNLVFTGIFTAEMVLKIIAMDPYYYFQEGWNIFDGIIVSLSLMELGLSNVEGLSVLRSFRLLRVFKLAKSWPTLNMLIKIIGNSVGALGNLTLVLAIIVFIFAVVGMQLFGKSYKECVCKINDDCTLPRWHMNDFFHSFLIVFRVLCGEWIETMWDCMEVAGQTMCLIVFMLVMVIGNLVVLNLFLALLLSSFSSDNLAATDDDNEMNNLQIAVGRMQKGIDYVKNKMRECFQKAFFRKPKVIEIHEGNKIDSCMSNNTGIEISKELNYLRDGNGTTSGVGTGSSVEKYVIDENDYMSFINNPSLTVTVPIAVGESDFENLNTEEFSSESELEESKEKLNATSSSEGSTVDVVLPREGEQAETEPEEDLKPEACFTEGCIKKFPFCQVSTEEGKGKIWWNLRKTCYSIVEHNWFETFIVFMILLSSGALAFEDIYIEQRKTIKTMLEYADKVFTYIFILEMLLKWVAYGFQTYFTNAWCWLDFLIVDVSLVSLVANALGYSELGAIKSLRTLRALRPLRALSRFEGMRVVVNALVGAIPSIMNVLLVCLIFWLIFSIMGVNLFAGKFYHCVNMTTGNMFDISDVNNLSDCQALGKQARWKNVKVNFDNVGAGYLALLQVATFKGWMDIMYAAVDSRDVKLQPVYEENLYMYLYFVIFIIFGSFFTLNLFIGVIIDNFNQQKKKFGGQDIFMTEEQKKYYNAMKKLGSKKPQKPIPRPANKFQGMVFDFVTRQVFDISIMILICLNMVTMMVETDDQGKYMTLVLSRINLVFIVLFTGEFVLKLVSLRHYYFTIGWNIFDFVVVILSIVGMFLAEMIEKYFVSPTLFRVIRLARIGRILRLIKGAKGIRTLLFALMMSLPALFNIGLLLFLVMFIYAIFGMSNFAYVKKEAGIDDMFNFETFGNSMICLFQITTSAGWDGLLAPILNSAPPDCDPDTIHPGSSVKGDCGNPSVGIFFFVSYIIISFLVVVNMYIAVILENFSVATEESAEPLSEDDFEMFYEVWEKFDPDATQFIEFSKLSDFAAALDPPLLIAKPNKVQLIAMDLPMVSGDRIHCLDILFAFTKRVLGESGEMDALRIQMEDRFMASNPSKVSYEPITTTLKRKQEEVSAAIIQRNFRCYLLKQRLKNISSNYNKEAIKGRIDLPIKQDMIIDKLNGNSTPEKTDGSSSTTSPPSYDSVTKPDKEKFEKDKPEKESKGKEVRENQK

Structure (SMILES)	IC50 (hNav1.3; [1])	IC50 (hNav1.7; [2])	IC50 (hNav1.5; [3])	also measured
CC[C@H](C)[C@@H]1NC(=O)[C@@H]2CSSC[C@@H]3NC(=O)[C@H](C(C)C)NC(=O)[C@H](CC(C)C)NC(=O)[C@H](CC(N)=O)NC(=O)[C@@H]4CCCN4C(=O)[C@H](CCCNC(=N)N)NC(=O)[C@H](CSSC[C@H](NC(=O)[C@@H](N)CC(=O)O)C(=O)N[C@@H](CC(C)C)C(=O)NCC(=O)N[C@@H](Cc4c[nH]c5ccccc45)C(=O)N[C@@H](CCSC)C(=O)N[C@@H](CCCNC(=N)N)C(=O)N[C@@H](CCCCN)C(=O)N2)NC(=O)[C@H](CSSC[C@@H](C(=O)N[C@@H](CCCCN)C(=O)N[C@@H](Cc2ccc(O)cc2)C(=O)N[C@H](C(=O)N[C@@H](Cc2ccccc2)C(N)=O)C(C)C)NC(=O)[C@H](Cc2c[nH]c4ccccc24)NC(=O)[C@H](CCCCN)NC(=O)[C@H](Cc2cnc[nH]2)NC(=O)[C@H]([C@@H](C)O)NC(=O)[C@H](CCCNC(=N)N)NC(=O)[C@H](CO)NC3=O)NC(=O)[C@H](CCCCN)NC(=O)[C@H](CC(=O)O)NC(=O)[C@H](CC(N)=O)NC(=O)[C@H](CC(=O)O)NC(=O)[C@@H]2CCCN2C1=O [SEQ ID NO: 82] (H-DCLGWMRKCIPDNDKCCRPNLVCSRTHKWCKYVF-NH2; disulfide 2-17, 9-23, 16-30)	110 nM	150 nM	9.32 µM	
CC[C@H](C)[C@@H]1NC(=O)[C@@H]2CSSC[C@@H]3NC(=O)[C@H](C(C)C)NC(=O)[C@H](CC(C)C)NC(=O)[C@H](CC(N)=O)NC(=O)[C@H](CO)NC(=O)[C@H](CO)NC(=O)[C@H](CCCNC(=N)N)NC(=O)[C@H](CSSC[C@H](NC(=O)[C@@H](N)CC(=O)O)C(=O)N[C@@H](CC(C)C)C(=O)NCC(=O)N[C@@H](Cc4ccccc4)C(=O)N[C@@H](CCSC)C(=O)N[C@@H](CCCNC(=N)N)C(=O)N[C@@H](CCCCN)C(=O)N2)NC(=O)[C@H](CSSC[C@@H](C(=O)N[C@@H](CCCCN)C(=O)N[C@@H](Cc2ccc(O)cc2)C(=O)N[C@H](C(=O)N[C@@H](Cc2ccccc2)C(N)=O)C(C)C)NC(=O)[C@H](Cc2c[nH]c4ccccc24)NC(=O)[C@H](CCCCN)NC(=O)[C@H](Cc2c[nH]cn2)NC(=O)[C@H]([C@@H](C)O)NC(=O)[C@H](CCCNC(=N)N)NC(=O)[C@H](CO)NC3=O)NC(=O)[C@H](CCCCN)NC(=O)[C@H](CC(=O)O)NC(=O)[C@H](CC(N)=O)NC(=O)[C@H](CC(=O)O)NC(=O)[C@@H]2CCCN2C1=O [SEQ ID NO: 93, [Ser-Ser19]GpTx-1] (H-DCLGFMRKCIPDNDKCCRSSNLVCSRTHKWCKYVF-NH2; disulfide 2-17, 9-24, 16-31)				IC50 (hNav1.3; Use): 320 nM; IC50 (hNav1.7; IonWorks Quattro, Use, read-out: IWQ Use Nav1.7): 270 nM; IC50 (hNav1.5; IonWorks Quattro, Use, read-out: IWQ Use Nav1.5): 13.9 µM
CC[C@H](C)[C@@H]1NC(=O)[C@@H]2CSSC[C@@H]3NC(=O)[C@H](C(C)C)NC(=O)[C@H](CC(C)C)NC(=O)[C@H](CC(N)=O)NC(=O)[C@@H]4CCCN4C(=O)[C@H](CCCNC(=N)N)NC(=O)[C@H](CSSC[C@H](NC(=O)[C@@H](N)Cc4ccc(O)cc4)C(=O)N[C@@H](CC(C)C)C(=O)NCC(=O)N[C@@H](Cc4ccccc4)C(=O)N[C@@H](CCSC)C(=O)N[C@@H](CCCNC(=N)N)C(=O)N[C@@H](CCCCN)C(=O)N2)NC(=O)[C@H](CSSC[C@@H](C(=O)N[C@@H](CCCCN)C(=O)N[C@@H](Cc2ccc(O)cc2)C(=O)N[C@H](C(=O)N[C@@H](Cc2ccccc2)C(N)=O)C(C)C)NC(=O)[C@H](Cc2c[nH]c4ccccc24)NC(=O)[C@H](CCCCN)NC(=O)[C@H](Cc2c[nH]cn2)NC(=O)[C@H]([C@@H](C)O)NC(=O)[C@H](CCCNC(=N)N)NC(=O)[C@H](CO)NC3=O)NC(=O)[C@H](CCCCN)NC(=O)[C@H](CC(=O)O)NC(=O)[C@H](CC(N)=O)NC(=O)[C@H](CC(=O)O)NC(=O)[C@@H]2CCCN2C1=O [SEQ ID NO: 97] (H-YCLGFMRKCIPDNDKCCRPNLVCSRTHKWCKYVF-NH2; disulfide 2-17, 9-23, 16-30)	130 nM	160 nM	10.6 µM	
CC[C@H](C)[C@@H]1NC(=O)[C@@H]2CSSC[C@@H]3NC(=O)[C@H](C(C)C)NC(=O)[C@H](CC(C)C)NC(=O)[C@H](CC(N)=O)NC(=O)[C@@H]4CCCN4C(=O)[C@H](CCCNC(=N)N)NC(=O)[C@H](CSSC[C@H](NC(=O)[C@@H](N)CC(=O)O)C(=O)N[C@@H](CCC(N)=O)C(=O)NCC(=O)N[C@@H](Cc4ccccc4)C(=O)N[C@@H](CCSC)C(=O)N[C@@H](CCCNC(=N)N)C(=O)N[C@@H](CCCCN)C(=O)N2)NC(=O)[C@H](CSSC[C@@H](C(=O)N[C@@H](CCCCN)C(=O)N[C@@H](Cc2ccc(O)cc2)C(=O)N[C@H](C(=O)N[C@@H](Cc2ccccc2)C(N)=O)C(C)C)NC(=O)[C@H](Cc2c[nH]c4ccccc24)NC(=O)[C@H](CCCCN)NC(=O)[C@H](Cc2c[nH]cn2)NC(=O)[C@H]([C@@H](C)O)NC(=O)[C@H](CCCNC(=N)N)NC(=O)[C@H](CO)NC3=O)NC(=O)[C@H](CCCCN)NC(=O)[C@H](CC(=O)O)NC(=O)[C@H](CC(N)=O)NC(=O)[C@H](CC(=O)O)NC(=O)[C@@H]2CCCN2C1=O [SEQ ID NO: 98] (H-DCQGFMRKCIPDNDKCCRPNLVCSRTHKWCKYVF-NH2; disulfide 2-17, 9-23, 16-30)	240 nM	250 nM	16.4 µM	
CC[C@H](C)[C@@H]1NC(=O)[C@@H]2CSSC[C@@H]3NC(=O)[C@H](C(C)C)NC(=O)[C@H](CC(C)C)NC(=O)[C@H](CC(N)=O)NC(=O)[C@@H]4CCCN4C(=O)[C@H](CCCNC(=N)N)NC(=O)[C@H](CSSC[C@H](NC(=O)[C@@H](N)CC(=O)O)C(=O)N[C@@H](CC(C)C)C(=O)NCC(=O)N[C@@H](Cc4cccc5ccccc45)C(=O)N[C@@H](CCSC)C(=O)N[C@@H](CCCNC(=N)N)C(=O)N[C@@H](CCCCN)C(=O)N2)NC(=O)[C@H](CSSC[C@@H](C(=O)N[C@@H](CCCCN)C(=O)N[C@@H](Cc2ccc(O)cc2)C(=O)N[C@H](C(=O)N[C@@H](Cc2ccccc2)C(N)=O)C(C)C)NC(=O)[C@H](Cc2c[nH]c4ccccc24)NC(=O)[C@H](CCCCN)NC(=O)[C@H](Cc2c[nH]cn2)NC(=O)[C@H]([C@@H](C)O)NC(=O)[C@H](CCCNC(=N)N)NC(=O)[C@H](CO)NC3=O)NC(=O)[C@H](CCCCN)NC(=O)[C@H](CC(=O)O)NC(=O)[C@H](CC(N)=O)NC(=O)[C@H](CC(=O)O)NC(=O)[C@@H]2CCCN2C1=O [SEQ ID NO: 105]	100 nM	80 nM		IC50 (hNav1.5; IWQ Use Nav1.5): 13.4 µM
CC[C@H](C)[C@@H]1NC(=O)[C@@H]2CSSC[C@@H]3NC(=O)[C@H](C(C)C)NC(=O)[C@H](CC(C)C)NC(=O)[C@H](CC(N)=O)NC(=O)[C@@H]4CCCN4C(=O)[C@H](CCCNC(=N)N)NC(=O)[C@H](CSSC[C@H](NC(=O)[C@H](CC(=O)O)NC(=O)[C@@H](N)Cc4c[nH]c5ccccc45)C(=O)N[C@@H](CC(C)C)C(=O)NCC(=O)N[C@@H](Cc4ccccc4)C(=O)N[C@@H](CCSC)C(=O)N[C@@H](CCCNC(=N)N)C(=O)N[C@@H](CCCCN)C(=O)N2)NC(=O)[C@H](CSSC[C@@H](C(=O)N[C@@H](CCCCN)C(=O)N[C@@H](Cc2ccc(O)cc2)C(=O)N[C@H](C(=O)N[C@@H](Cc2ccccc2)C(N)=O)C(C)C)NC(=O)[C@H](Cc2c[nH]c4ccccc24)NC(=O)[C@H](CCCCN)NC(=O)[C@H](Cc2cnc[nH]2)NC(=O)[C@H]([C@@H](C)O)NC(=O)[C@H](CCCNC(=N)N)NC(=O)[C@H](CO)NC3=O)NC(=O)[C@H](CCCCN)NC(=O)[C@H](CC(=O)O)NC(=O)[C@H](CC(N)=O)NC(=O)[C@H](CC(=O)O)NC(=O)[C@@H]2CCCN2C1=O [SEQ ID NO: 106]	250 nM	220 nM	22 µM	
CC[C@H](C)[C@@H]1NC(=O)[C@@H]2CSSC[C@@H]3NC(=O)[C@H](C(C)C)NC(=O)[C@H](CC(C)C)NC(=O)[C@H](CC(N)=O)NC(=O)[C@@H]4CCCN4C(=O)[C@H](CCCNC(=N)N)NC(=O)[C@H](CSSC[C@H](NC(=O)[C@@H](N)CC(=O)O)C(=O)N[C@@H](CC(C)C)C(=O)NCC(=O)N[C@@H](Cc4ccccc4)C(=O)N[C@@H](CCSC)C(=O)N[C@@H](CCCNC(=N)N)C(=O)N[C@@H](CCCCN)C(=O)N2)NC(=O)[C@H](CSSC[C@@H](C(=O)N[C@@H](CCCCN)C(=O)N[C@@H](Cc2ccc(O)cc2)C(=O)N[C@H](C(=O)N[C@@H](Cc2ccccc2)C(N)=O)C(C)C)NC(=O)[C@H](Cc2c[nH]c4ccccc24)NC(=O)[C@H](CCCCN)NC(=O)[C@H](Cc2cnc[nH]2)NC(=O)[C@H](CC(C)C)NC(=O)[C@H](CCCNC(=N)N)NC(=O)[C@H](CO)NC3=O)NC(=O)[C@H](CCCCN)NC(=O)[C@H](CC(=O)O)NC(=O)[C@H](CC(N)=O)NC(=O)[C@H](CC(=O)O)NC(=O)[C@@H]2CCCN2C1=O [SEQ ID NO: 121, [Leu26]GpTx-1] (H-DCLGFMRKCIPDNDKCCRPNLVCSRLHKWCKYVF-NH2; disulfide 2-17, 9-23, 16-30)				IC50 (hNav1.3; Table 22, use, […]): 70 nM; IC50 (hNav1.7): 70 nM; IC50 (hNav1.5; Table 22, IonWorks Quattro, use, […], read-out: IWQ Use Nav1.5): 10.2 µM
CC[C@@H]1NC(=O)[C@H](Cc2ccccc2)NC(=O)CNC(=O)[C@H](CC(C)C)NC(=O)[C@@H](NC(=O)[C@@H](N)CC(=O)O)CSSC[C@@H]2NC(=O)[C@@H]3CSSC[C@@H](C(=O)N[C@@H](CCCCN)C(=O)N[C@@H](Cc4ccc(O)cc4)C(=O)N[C@H](C(=O)N[C@@H](Cc4ccccc4)C(N)=O)C(C)C)NC(=O)[C@H](Cc4c[nH]c5ccccc45)NC(=O)[C@H](CCCCN)NC(=O)[C@H](Cc4c[nH]cn4)NC(=O)[C@H]([C@@H](C)O)NC(=O)[C@H](CCCNC(=N)N)NC(=O)[C@H](CO)NC(=O)[C@H](CSSC[C@H](NC(=O)[C@H](CCCCN)NC(=O)[C@H](CCCNC(=N)N)NC1=O)C(=O)N[C@@H]([C@@H](C)CC)C(=O)N1CCC[C@H]1C(=O)N[C@@H](CC(=O)O)C(=O)N[C@@H](CC(N)=O)C(=O)N[C@@H](CC(=O)O)C(=O)N[C@@H](CCCCN)C(=O)N3)NC(=O)[C@H](C(C)C)NC(=O)[C@H](CC(C)C)NC(=O)[C@H](CC(N)=O)NC(=O)[C@@H]1CCCN1C(=O)[C@H](CCCNC(=N)N)NC2=O [SEQ ID NO: 124]	100 nM	110 nM	10.6 µM	
